Data as given in patent US11572402B2, “Method for promoting diversification of antibody variable region” (Chiome Bioscience Inc., priority 2017, dated 2023).

Test system: hVEGF-A-#33 cell line
Test: Screening for diversification-promoting compounds by FCM (hIgG+_hVEGF-A− population)
Assay type: cell-based, chicken
Details: hVEGF-A-#33 cells expressing human IgG, versus negative control CS(−)
Experimental: Frozen stocks of the hVEGF-A #33 cell line and the hVEGF-A #44 cell line (3.0×10^6 cells) were each awaken with a CS(-) medium, using a 25 cm^2 Flask (Corning, 430639), and were then cultured in a CO2 incubator (SANYO CO2 Incubator MCO-20AIC, 39.5° C., 5% CO2). On the following day, the cells were seeded on a 6-well dish (Nunc, 140675) to a cell density of 1.0×10^4 cells/mL (wherein the cell concentration and the survival rate were measured using CASY cell counter (Nepa Gene)). The cells were cultured in a CS(+) medium, in the presence or absence of a PI3Kα inhibitor ([…]: 10 μM, PI3Kα Inhibitor 2: 500 nM). Moreover, after the cells had been cultured for 2 days, individual samples were subcultured under the same conditions to result in a cell density of 1.0×10^4 cells/mL. Further, after completion of the culture for 3 days, individual samples were subcultured under the same conditions to result in a cell density of 6.0×10^4 cells/mL, and the culture was continued. After completion of the culture for 2 days (Day 7 of the culture), individual samples were centrifuged to remove a supernatant, and the residue was then suspended in a CS(+) medium supplemented with 1 μM FK-506 (hereinafter referred to as a “CS/FK medium”). The suspension was centrifuged again to remove a supernatant. This washing step was carried out repeatedly twice, and individual samples were then suspended in a CS/FK medium supplemented with AF647-labeled hVEGF-A (10 nM) and 2,000-fold diluted Goat Anti-Human IgG-PE. The light was shielded, and the obtained suspension was then reacted at 4° C. for 30 min. After completion of the staining, the reaction mixture was washed with a CS/FK medium twice, and each sample was then suspended in the CS/FK medium. Thereafter, using FACS Aria Fusion (BD), FCM and single cell sorting was carried out. Dead cells were removed using FSC-SSC plot. A plot, in which the vertical axis indicated AF647 (AF647-labeled hVEGF-A) and the longitudinal axis indicated PE (Goat Anti-Human IgG-PE), was developed, and the percentage of PE+(hIgG+)/AF647-(hVEGF-A-) cells was then calculated. In order to make a comparison regarding the number of cells with improved antigen-binding ability according to Affinity Maturation under individual conditions, Affinity Maturation Gate was established according to the following criteria. First, the plot was converted to a contour plot in FCM analysis, and a trapezoid gate having an inclination that was in parallel with the contour of a population in which the most cells were gathered (hereinafter referred to as a “main population”) was established. […] At that time, the vertex of the trapezoid gate was set to be overlapped with the mean value MFI of the main population, and then, a cell population having low antigen-binding ability and a cell population having a low expression level of antibody were set not to enter the gate. The percentage of clones with improved antigen-binding ability was calculated by counting the number of cells existing in this Affinity Maturation Gate and then dividing the obtained value by the total number of the analyzed cells. […]

Compound	percentage of hIgG+_hVEGF-A− cell population (diversification-promoting effect)
O=C1NC(=O)/C(=C/c2ccc3nccc(-c4ccncc4)c3c2)S1 [GSK1059615]	increased in comparison to the negative control (CS(−))
N#Cc1ccc(-c2c(-c3ncn[nH]3)sc(N3CCOCC3)c2C#N)c(F)c1 [PF-4989216]	increased in comparison to the negative control (CS(−))
Oc1cccc(-c2nc(N3CCOCC3)c3oc4ncccc4c3n2)c1 [PI-103]	increased in comparison to the negative control (CS(−))
COc1ccc2c(c1OC)N=C(NC(=O)c1cccnc1)N1CCN=C21 [PIK-90]	increased in comparison to the negative control (CS(−))
